The subject of data set [1] is fMLF/cytochalasin B (CB)-activated human neutrophils. Nature of the data set: Superoxide anion generation (ferricytochrome c reduction) in fMLF/CB-activated human neutrophils. In kind it is cell-based. Conditions: Neutrophil, fMLF/CB stimulation, mean ± SEM (n = 3–5); for inhibition at 10 µM: 10 μM compound. As for the experimental part:
(§1) The study involving neutrophils was approved by the Institutional Review Board of Chang Gung Memorial Hospital under IRB number: 201902217A3 and was conducted in accordance with the principles of the Declaration of Helsinki. Healthy volunteers aged 20–35 years provided signed informed consents for blood collection. Isolation of neutrophils was done using dextran sedimentation, Ficoll-Hypaque density gradient centrifugation, and hypotonic haemolysis. For the anti-inflammatory studies, neutrophils were suspended in Hank’s balanced salt solution (HBSS) containing 1 mM Ca^2+ at a pH of 7.4[72].
The reduction of ferricytochrome c was utilised to measure the production of SO anions in activated human neutrophils. […] The neutrophils were then stimulated with fMLF (0.1 μM) and CB (1 μg/mL) for 13 min. […] LY294002 was used as a positive control.

The test system is the same in data set [2]. The data set is described as follows: Elastase release in fMLF/CB-activated human neutrophils. Conditions: fMLF/CB stimulation, mean ± SEM (n = 3–5); for inhibition at 10 µM: 10 μM compound. In kind it is cell-based. As for the experimental part: as §1
Neutrophils were subsequently stimulated with fMLF (0.1 μM) and CB (0.5 μg/mL) for 13 min. […] LY294002 was used as a positive control.

Data set [3] relates to JNK. Nature of the data set: Immunoblotting of JNK phosphorylation in fMLF-activated neutrophils. The note with it: 10 μM for 5 min, then fMLF 0.1 μM for 30 s. In kind it is cell-based, human. As for the experimental part:
(§2) Human neutrophils (2.5 × 10^7 cells/mL) were first subjected to DMSO (0.1%, serving as control) or experimental compounds at 37 °C for 5 min. Following this, cells were stimulated with fMLF (0.1 μM) for 30 s. […] Primary antibodies used included those for p38 (1:8000), phospho-p38 (1:3000), JNK (1:3000), phospho-JNK (1:3000), Akt (1:5000), phospho-Akt (Ser-473) (1:2000), ERK (1:8000), phospho-ERK (1:8000), and HRP-linked anti-rabbit IgG, to measure total and phosphorylated forms of MAPK and Akt proteins. The quantitative measurements for all samples were adjusted to correspond with the levels of the total protein present.
In general terms: In western blotting, separated proteins are transferred to a membrane and probed.

Data set [4] deals with ERK. Nature of the data set: Immunoblotting of ERK phosphorylation in fMLF-activated neutrophils. In kind it is cell-based, human. The note with it: 10 μM for 5 min, then fMLF 0.1 μM for 30 s. Here is the method: as §2
The test system of data set [5] is p38 MAPK. Nature of the data set: Immunoblotting of p38 MAPK phosphorylation in fMLF-activated neutrophils. In kind it is cell-based, human. Conditions: 10 μM for 5 min, then fMLF 0.1 μM for 30 s. Here is the method: as §2
Data set [6] has as its system Akt. Nature of the data set: Immunoblotting of Akt phosphorylation in fMLF-activated neutrophils. In kind it is cell-based, human. Conditions: 10 μM for 5 min, then fMLF 0.1 μM for 30 s. As for the experimental part:
as §2

Molecules are shown by their SMILES.

The inhibition is the change of the read-out against control, counted positive when it falls. What is called IC50 is the concentration that inhibits the measured activity by half. By melting point is commonly meant the temperature of the solid-liquid transition.

For the compound `COc1cccc(C(=O)/C=C/c2ccc([N+](=O)[O-])cc2)c1` [Compound 6a, (E)-1-(3-Methoxyphenyl)-3-(4-nitrophenyl)prop-2-en-1-one], the melting point was 132.3 to 133.3 °C. In data set [1], this compound displayed an inhibition at 10 µM of 99.69 ± 0.18% and a half-inhibitory concentration (IC50) of 1230 ± 270 nM. In data set [2] (Homo sapiens, Neutrophil), this compound had an inhibition at 10 µM of 84.5 ± 5.73% and an IC50 of 1370 nM. Also, 2220 ± 120 nM corresponded to half-maximal inhibition in data set [2] (IC50). The “Effect on JNK phosphorylation” value in data set [3] was “significantly suppressed phosphorylation”. Also, in data set [4], the “Effect on ERK phosphorylation” value is “did not alter the phosphorylation”. Besides, in data set [5], the “Effect on p38 phosphorylation” value is recorded as “did not alter the phosphorylation”. Moreover, the “Effect on Akt phosphorylation” value in data set [6] is on record as “significantly suppressed phosphorylation”.

Turning to `COc1ccc(C(=O)/C=C/c2cc(F)cc(F)c2)cc1OC` [Compound 26a, (E)-3-(3,5-Difluorophenyl)-1-(3,4-dimethoxyphenyl)prop-2-en-1-one], the melting point is 132.8 to 134.8 °C. In data set [1], this compound came in with an inhibition at 10 µM of 92.4 ± 2.19% and an IC50 of 1560 ± 270 nM. For the same compound, in data set [2] (Homo sapiens, Neutrophil), the inhibition at 10 µM was 20.2 ± 3.19%. In addition, the “Effect on JNK phosphorylation” value in data set [3] is recorded as “markedly diminished phosphorylation”. Also, the “Effect on ERK phosphorylation” value in data set [4] is “markedly diminished phosphorylation”. For the same compound, the “Effect on p38 phosphorylation” value in data set [5] is “markedly diminished phosphorylation”. Moreover, the “Effect on Akt phosphorylation” value in data set [6] is listed as “did not affect”.

The values are drawn from paper PMC11413964, “Discovery of 1,3-disubstituted prop-2-en-1-one derivatives as inhibitors of neutrophilic inflammation via modulation of MAPK and Akt pathways” (Journal of Enzyme Inhibition and Medicinal Chemistry, 2024).
